Measured values reported in patent US8110365B2, “Compositions and methods for detecting and treating renal injury and inflammation” (Rhode Island Hospital, priority 2006, dated 2012).
“Also recorded” adds a separate entry of the source. Like-named read-outs stand apart in the source and are kept apart here.

Tests used:
[1] = tested on: HKC cells; assay: Cell viability of HKC cells (Trypan blue exclusion); assay type: cell-based, human; conditions: TNF-a (2 ng/ml) treated HKC cells at 24 h
Procedure: (§1) Human proximal TEC (HKC-8) (courtesy of Dr. L. Racusen of John Hopkins University, Baltimore, Md.) were maintained in Dulbecco's modified Eagle's medium (DMEM)/F12 supplemented with 5% fetal bovine serum (FBS). Cells were plated at approximately 70% confluence in the media containing 5% FBS for 24 h and then underwent serum starvation for another 24 h. Human recombinant HGF and human recombinant TNF-α (R&D systems, Minneapolis, Minn.) were added to the culture with fresh serum-free medium at a final concentration of 20 ng/ml and 2 ng/ml respectively, or otherwise as indicated. Cell viability was assessed by Trypan blue exclusion. At different time points, cells and conditioned media were harvested for further investigation.

[2] = target: GSK3b (Homo sapiens, UniProt P49841); assay: Inhibitory phosphorylation of GSK3b in HKC cells (immunoblot); assay type: cell-based; set-up: endogenous in cells; host or cells: HKC-8
GSK3b, sequence (P49841 whole entry): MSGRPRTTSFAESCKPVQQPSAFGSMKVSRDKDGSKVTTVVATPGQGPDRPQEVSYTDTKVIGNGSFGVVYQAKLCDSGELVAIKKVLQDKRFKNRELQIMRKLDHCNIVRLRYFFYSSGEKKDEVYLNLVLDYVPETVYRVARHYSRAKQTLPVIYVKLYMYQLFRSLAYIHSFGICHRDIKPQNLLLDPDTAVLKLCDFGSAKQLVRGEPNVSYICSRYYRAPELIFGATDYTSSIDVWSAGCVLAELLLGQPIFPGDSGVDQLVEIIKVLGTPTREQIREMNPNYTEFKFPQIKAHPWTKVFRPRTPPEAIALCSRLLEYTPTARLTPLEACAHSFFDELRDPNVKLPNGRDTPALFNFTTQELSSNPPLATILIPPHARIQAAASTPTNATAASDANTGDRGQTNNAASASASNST
Procedure: as §1
(§2) After different treatments, HKC cells were washed with PBS and lysed with RIPA buffer supplemented with protease inhibitors [1% Nonidet P-40, 0.1% SDS, 100 ug/ml phenylmethysulfonyl fluoride (PMSF), 0.5% sodium deoxycholate, ImM sodium orthovanadate, 2 ug/ml aprotin, 2 ug/ml leupeptin, 5mM EDTA in PBS]. Protein concentration was determined by using a bicinchoninic acid protein assay kit (Sigma). All samples with equal amounts of total protein (50 ug/ml) were fractionated by 7.5˜15% SDS-polyacrylamide gels under reducing condition and analyzed by western immunoblot as described previously (30). The antibodies against p-GSK3b, p-NFkB p65, p-IkBa were purchased from Cell Signaling Technology (Beverly, Mass.) and those for GSK3b, hemagglutin were from Santa Cruz Biotechnology (Santa Cruz, Calif.).

[3] = tested on: b-catenin; assay: b-catenin accumulation in HKC; assay type: cell-based, human
[4] = tested on: NFkB target genes; assay: Real time RT-PCR of NFkB target genes in TNF-a stimulated HKC cells; assay type: cell-based, human; conditions: HKC cells, 12 h
Procedure: Total RNA was extracted from approximately 1×10^6 cultured HKC cells using TRIzol solution (Invitrogen, Carlsbad, Calif.) according to the instructions specified by the manufacturer. RNA was then diluted to 3μg/μl in RNase free distilled water. The first strand cDNA was prepared using 3 μg RNA, Superscript RT reverse transcriptase (Invitrogen) and oligo (dT) primer according to the manufacture's instruction. Quantitative real time PCR was carried out on a Stratagene Mx4000® multiplex quantitative PCR system (Stratagene, La Jolla, Calif.) using primers specific for human MCP-1, RANTES, IkBa, Bcl-2 and GAPDH. All reactions were performed in triplicate with Brilliant® SYBR® Green QPCR Master Mix (Stratagene). Fluorescence values of SYBR Green I dye, representing the amount of product amplified at that point in the reaction, were recorded in real time at both the annealing step and the extension step of each cycle. The Ct value, defined as the point at which the fluorescence signal was statistically significant above background, was calculated for each amplicon in each experimental sample using Stratagene Mx4000 software. This value was then used to determine the relative amount of amplification in each sample by interpolating from the standard curve. Transcript level of each specific gene was normalized to GAPDH amplification.

[5] = tested on: rats with unilateral urethral obstruction(UUO); assay: Rats with unilateral urethral obstruction (UUO); assay type: in vivo, rat; conditions: for renal inflammation (ED-1 macrophage infiltration): VPA 200 mg/kg/d ip, 5 days
[6] = target: T1, GSK3b and NFkB p65 (Homo sapiens, UniProt P49841); assay: Co-immunoprecipitation of GSK3b and NFkB p65 in HKC cells; assay type: cell-based; conditions: HKC cells
T1 construct: whole cell lysates were subjected to immunoprecipitation by anti-GSK3b or anti-p65 antibody; endogenous in cells; host or cells: HKC-8
T1 sequence (P49841 whole entry): as above
Procedure: Immunoprecipitation was carried out by using an established method as described previously. Briefly, cells were washed with ice cold PBS and then lysed with RIPA buffer. After preclearing with normal IgG, cell lysates with equal amount of total protein (0.5 mg of protein) were incubated overnight at 4° C. with 4 μg specific agarose-conjugated antibodies. The precipitated complexes were collected, washed, and separated on SDS-polyacrylamide gels and blotted with various antibodies as indicated.

[7] = tested on: NFkB p65; assay: TNF-a induced NFkB p65 phosphorylation in HKC cells (immunoblot); assay type: cell-based, human; conditions: HKC cells; for TNF-a induced p65 phosphorylation at S468: TNF-a 2 ng/ml, VPA 1 mM, 10 uM for 60 minutes
Procedure: as §1, §2

[8] = kidney homogenates, immunoblot, listed as VPA

| Compound | cell viability / TNF-a induced apoptosis [1] | inhibitory phosphorylation of GSK3b (S9) [2] | b-catenin accumulation [3] | TNF-a induced mRNA expression of IkBa and Bcl-2 [4] | TNF-a induced mRNA expression of MCP-1 and RANTES [4] | renal inflammation (ED-1 macrophage infiltration) [5] | renal inflammation (ED-1 macrophage infiltration) ([5]; listed as VPA) | renal total GSK3b expression ([5]; kidney homogenates, immunoblot) | renal inhibitory phosphorylation of GSK3b [5, 8] | renal total GSK3b expression [5, 8] | TNF-a induced co-precipitation of phosphorylated p65 (Ser468) with GSK3b ([6]; immunoprecipitation by anti-GSK3b) | TNF-a induced GSK3b to p65 interaction ([6]; immunoprecipitation by anti-p65) | TNF-a induced p65 phosphorylation at other sites (S276, S536) [7] | TNF-a induced p65 phosphorylation at S468 [7] | TNF-a induced p65 phosphorylation at S468 ([7]; listed as VPA) | inhibitory phosphorylation of GSK3b (S9) ([2]; listed as Sodium valproate) | inhibitory phosphorylation of GSK3b (S9) ([2]; listed as Valproic acid) |
| --- | --- | --- | --- | --- | --- | --- | --- | --- | --- | --- | --- | --- | --- | --- | --- | --- | --- |
| Cn1sc(=O)n(Cc2ccccc2)c1=O [TDZD-8] | Only lithium significantly reduced cell viability | induced marked GSK3b phosphorylation | induced b-catenin (b-Cat.) accumulation |  |  |  |  |  |  |  |  |  |  |  |  |  |  |
| CCCC(CCC)C(=O)O [valproate, Valproic acid, reference compound] | Only lithium significantly reduced cell viability | induced marked GSK3b phosphorylation | induced b-catenin (b-Cat.) accumulation | mimicked the action of HGF on the expression of these genes | mimicked the action of HGF on the expression of these genes | prevented inflammatory infiltration; also recorded: markedly ameliorates renal inflammation | diminished renal inflammation | blunted induced expression of GSK3b in the diseased kidney | much greater; also recorded: enhanced its inhibitory phosphorylation | substantially suppressed total GSK3b expression | mimicking the action of VPA | reminiscent the effect of VPA | minimally affected phosphorylation of p65 at other sites | suppresses TNF-a elicited p65 phosphorylation at S468 | abrogates the TNF-a induced NFkB p65 phosphorylation at Ser468 in a dose dependent manner | induced phosphorylation of GSK3b at Ser9 | induces inhibitory phosphorylation of GSK3b at S9 |
